Test results as given in PMC10215740 (Antibiotics, 2023).
Values joined by “and” are separate entries in the source; they are usually repeats but may differ in a detail not shown here. Identical values can stand only once.

Assays:
[1] = Time with concentration above MIC targets (T>MIC, %T>MIC) in plasma and spinal tissues, microdialysis porcine model; assay type: in vivo, pigs (Danish Landrace breed)
Description: (§1) Eight female pigs (Danish Landrace breed, weight 78–82 kg) were included. In general anaesthesia, microdialysis catheters were placed in the third cervical (C3) vertebral cancellous bone, the C3-C4 intervertebral disc, paravertebral muscle, and adjacent subcutaneous tissue. Plasma samples were obtained as a reference. Abiding by the recommendations of replacement, reduction, and refinement (the 3 Rs) when conducting animal studies, the data sampled in extrathecal spinal tissues in the present study are derived from animals where lower extremity data were reported previously. […] The dose and mode of administration used were in accordance with the clinical practice at our institution. Sampling was conducted for 8 h.
(§2) (Figure 3). The microdialysis catheters used were CMA 70 (membrane length 10 and 20 mm, molecular mass cut of 20 kDa; M Dialysis AB, Stockholm, Sweden). Through an anterolateral approach, the C2, C3, and C4 vertebrae were exposed. Using a 2 mm drill, a 25 mm drill hole was made into the C3 vertebra in which a 20 mm microdialysis catheter was placed. Afterward, with aid from a splitable microdialysis introducer (M Dialysis AB, Stockholm, Sweden), a 10 mm microdialysis catheter was positioned in the C3-C4 intervertebral disc, and a 20 mm microdialysis catheter was positioned in both the exposed paravertebral muscle and adjacent subcutaneous tissue. Correct positioning of the microdialysis catheters in the vertebra and the intervertebral disc was verified by fluoroscopy. The catheters were connected to precision pumps (CMA 107; M Dialysis AB, Stockholm, Sweden) and perfused with 0.9% NaCl solution at a flow rate of 1 μL/min.
(§3) After catheter placement, microdialysis sampling was initiated with a tissue-equilibration period of 20 min prior to the antibiotic intravenous administration. […] Microdialysates were collected at 30 min intervals for the first 4 h, and at 60 min intervals for the last 4 h, resulting in a total of 12 samples during an 8-h dosing interval. At the midpoint of each sampling interval, blood samples were collected from a central venous catheter for reference. The blood samples were stored at 5 °C for a maximum of 6 h before being centrifuged (room temperature, 3000 g, 10 min), and plasma aliquots were made. […] The recovery sample was later used for individual catheter calibration and calculation of absolute tissue concentrations. All collected samples were stored at –80 °C until the chemical analyses were performed; microdialysate analyses were performed at the Department of Forensic Medicine, Aarhus University, Denmark, and plasma aliquot analyses were performed at the Department of Clinical Biochemistry, Aarhus University Hospital, Aarhus, Denmark.
(§4) The free drug concentration of meropenem in plasma was quantified using ultra-high performance liquid chromatography (UHPLC).
(§5) The area under the concentration–time curves from zero to the last measured value (AUC0-8h) was calculated using the trapezoidal rule. The Cmax was calculated as the maximum concentration of all the recorded concentrations, and the Tmax was calculated as the time to achieve Cmax. As a measure of tissue penetration, the ratio of tissue AUC to plasma AUC (AUCtissue/AUCplasma) was calculated. A general comparison of the T>MIC and the pharmacokinetic parameters was conducted using repeated measurements of the analysis of variance (ANOVA), followed by pairwise comparisons made by linear regression. Because of a small sample size, it was necessary to conduct a correction for the degrees of freedom by the Kenward–Roger approximation method. Using the visual diagnosis of residuals, fitted values and estimates of random-effects model assumptions were tested. A p-value of less than 0.05 was considered significant.

[2] = Plasma and spinal tissue pharmacokinetics by microdialysis after single-dose co-administered i.v. meropenem and vancomycin; conditions: free drug, single i.v. 1000 mg meropenem + 1000 mg vancomycin co-administered, mean (95%CI)
Description: as §1, §2, §3, §4, §5

[3] = intervertebral disc, microdialysis, pigs, one disc catheter malfunctioned
[4] = paravertebral muscle, microdialysis, pigs n = 8
[5] = subcutaneous tissue, microdialysis, pigs n = 8
[6] = vertebral cancellous bone, microdialysis, pigs n = 8

## C[C@@H](O)[C@H]1C(=O)N2C(C(=O)O)=C(S[C@@H]3CN[C@H](C(=O)N(C)C)C3)[C@H](C)[C@H]12 [Meropenem, meropenem]
[1]; meropenem MIC 0.125 μg/mL (low), C3-C4 intervertebral disc, microdialysis, UHPLC-MS/MS, pigs, one disc catheter malfunctioned, single i.v. 1000 mg co-administered with vancomycin, mean
  Mean T>MIC (min): 366 (335; 396) min
[1]; meropenem MIC 0.125 μg/mL (low), C3 vertebral cancellous bone, microdialysis, UHPLC-MS/MS, pigs n = 8, single i.v. 1000 mg co-administered with vancomycin, mean
  Mean T>MIC (min): 244 (215; 272) min
[1]; meropenem MIC 0.125 μg/mL (low), intervertebral disc, microdialysis, percentage of dosing interval of 450 min, pigs, single i.v. 1000 mg
  Mean %T>MIC: 81 (74; 88) %
[1]; meropenem MIC 0.125 μg/mL (low), paravertebral muscle, microdialysis, UHPLC-MS/MS, pigs n = 8, single i.v. 1000 mg co-administered with vancomycin, mean
  Mean T>MIC (min): 285 (256; 314) min
[1]; meropenem MIC 0.125 μg/mL (low), paravertebral muscle, microdialysis, percentage of dosing interval of 450 min, pigs n = 8, single i.v. 1000 mg
  Mean %T>MIC: 63 (57; 70) %
[1]; meropenem MIC 0.125 μg/mL (low), plasma, free drug, UHPLC, pigs n = 8, single i.v. 1000 mg over 10 min co-administered with vancomycin 1000 mg, linear interpolation, mean
  Mean T>MIC: 406 min
[1]; meropenem MIC 0.125 μg/mL (low), plasma, percentage of dosing interval of 450 min, pigs n = 8, single i.v. 1000 mg co-administered with vancomycin
  Mean %T>MIC: 90%
[1]; meropenem MIC 0.125 μg/mL (low), subcutaneous tissue, microdialysis, UHPLC-MS/MS, pigs n = 8, single i.v. 1000 mg co-administered with vancomycin, mean
  Mean T>MIC (min): 334 (305; 363) min
[1]; meropenem MIC 0.125 μg/mL (low), subcutaneous tissue, microdialysis, percentage of dosing interval of 450 min, pigs n = 8, single i.v. 1000 mg
  Mean %T>MIC: 74 (68; 81) %
[1]; meropenem MIC 0.125 μg/mL (low), vertebral cancellous bone, microdialysis, percentage of dosing interval of 450 min, pigs n = 8, single i.v. 1000 mg
  Mean %T>MIC: 54 (48; 61) %
[1]; meropenem low MIC target (0.125 µg/mL), all the investigated compartments, 8-h dosing interval, pigs, single i.v. 1000 mg
  %T>MIC: ≥ 54%
[1]; pig, in vivo
  %T>MIC: 25–36%
  Mean %T>MIC: 36 (33; 40) %
  Mean T>MIC (min): 163 (147; 180) min
[1]; pig, in vivo, iv
  %T>MIC: ≤ 40%
  Mean %T>MIC: 40% and 26 (22; 30) % and 25 (22; 29) % and 35 (31; 39) %
  Mean T>MIC: 181 min
  Mean T>MIC (min): 118 (101; 134) min and 114 (98; 131) min and 158 (141; 175) min
[1]; pig, in vivo, iv, listed as meropenem
  %T>MIC: 25–90%

## CN[C@H](CC(C)C)C(=O)N[C@H]1C(=O)N[C@@H](CC(N)=O)C(=O)N[C@H]2C(=O)N[C@H]3C(=O)N[C@H](C(=O)N[C@H](C(=O)O)c4cc(O)cc(O)c4-c4cc3ccc4O)[C@H](O)c3ccc(c(Cl)c3)Oc3cc2cc(c3O[C@@H]2O[C@H](CO)[C@@H](O)[C@H](O)[C@H]2O[C@H]2C[C@](C)(N)[C@H](O)[C@H](C)O2)Oc2ccc(cc2Cl)[C@H]1O [Vancomycin, vancomycin]
[2]; [3]
  AUC0-8h: 877 (−325; 2079) min μg/mL
  Cmax: 3 (−3; 10) μg/mL
[2]; [4]
  AUC0-8h: 2538 (1379; 3698) min μg/mL
  Cmax: 11 (5; 17) μg/mL
[2]; plasma, pigs n = 8
  Cmax: 35 (29; 41) μg/mL
[2]; [5]
  AUC0-8h: 3767 (2608; 4927) min μg/mL
  Cmax: 17 (11; 23) μg/mL
[2]; [6]
  AUC0-8h: 1698 (539; 2858) min μg/mL
  Cmax: 6 (0.4; 12) μg/mL
[1]; vancomycin MIC 1 μg/mL (low), intervertebral disc, microdialysis, percentage of dosing interval of 450 min, pigs, single i.v. 1000 mg
  Mean %T>MIC: 69%
[1]; vancomycin MIC 1 μg/mL (low), intervertebral disc, microdialysis, pigs, one disc catheter malfunctioned, single i.v. 1000 mg co-administered with meropenem, mean
  Mean T>MIC: 311 min
[1]; vancomycin MIC 1 μg/mL (low), paravertebral muscle, microdialysis, percentage of dosing interval of 450 min, pigs n = 8, single i.v. 1000 mg
  Mean %T>MIC: 96%
[1]; vancomycin MIC 1 μg/mL (low), paravertebral muscle, microdialysis, pigs n = 8, single i.v. 1000 mg co-administered with meropenem, mean
  Mean T>MIC: 433 min
[1]; vancomycin MIC 1 μg/mL (low), plasma, free drug, enzyme immunoassay, pigs n = 8, single i.v. 1000 mg over 100 min co-administered with meropenem 1000 mg, linear interpolation, mean
  Mean T>MIC: 449 min
[1]; vancomycin MIC 1 μg/mL (low), plasma, percentage of dosing interval of 450 min, pigs n = 8, single i.v. 1000 mg
  Mean %T>MIC: 100%
[1]; vancomycin MIC 1 μg/mL (low), subcutaneous tissue, microdialysis, UHPLC-MS/MS, pigs n = 8, single i.v. 1000 mg co-administered with meropenem, mean
  Mean T>MIC: 435 min
[1]; vancomycin MIC 1 μg/mL (low), subcutaneous tissue, microdialysis, percentage of dosing interval of 450 min, pigs n = 8, single i.v. 1000 mg
  Mean %T>MIC: 97%
[1]; vancomycin MIC 1 μg/mL (low), vertebral cancellous bone, microdialysis, percentage of dosing interval of 450 min, pigs n = 8, single i.v. 1000 mg
  Mean %T>MIC: 86%
[1]; vancomycin MIC 1 μg/mL (low), vertebral cancellous bone, microdialysis, pigs n = 8, single i.v. 1000 mg co-administered with meropenem, mean
  Mean T>MIC: 388 min
[1]; vancomycin MIC 4 μg/mL (high), intervertebral disc, microdialysis, percentage of dosing interval of 450 min, pigs, single i.v. 1000 mg
  Mean %T>MIC: 10%
[1]; vancomycin MIC 4 μg/mL (high), intervertebral disc, microdialysis, pigs, one disc catheter malfunctioned, single i.v. 1000 mg co-administered with meropenem, mean
  Mean T>MIC: 45 min
[1]; vancomycin MIC 4 μg/mL (high), paravertebral muscle, microdialysis, pigs n = 8, single i.v. 1000 mg co-administered with meropenem, mean
  Mean T>MIC: 306 min
[1]; vancomycin MIC 4 μg/mL (high), plasma, free drug, pigs n = 8, single i.v. 1000 mg co-administered with meropenem, mean
  Mean T>MIC: 446 min
[1]; vancomycin MIC 4 μg/mL (high), plasma, percentage of dosing interval of 450 min, pigs n = 8, single i.v. 1000 mg
  Mean %T>MIC: 99%
[1]; vancomycin MIC 4 μg/mL (high), subcutaneous tissue, microdialysis, percentage of dosing interval of 450 min, pigs n = 8, single i.v. 1000 mg
  Mean %T>MIC: 81%
[1]; vancomycin MIC 4 μg/mL (high), subcutaneous tissue, microdialysis, pigs n = 8, single i.v. 1000 mg co-administered with meropenem, mean
  Mean T>MIC: 365 min
[1]; vancomycin MIC 4 μg/mL (high), vertebral cancellous bone, microdialysis, percentage of dosing interval of 450 min, pigs n = 8, single i.v. 1000 mg
  Mean %T>MIC: 47%
[1]; vancomycin MIC 4 μg/mL (high), vertebral cancellous bone, microdialysis, pigs n = 8, single i.v. 1000 mg co-administered with meropenem, mean
  Mean T>MIC: 214 min
[1]; vancomycin high MIC target (4 µg/mL), all solid tissue compartments, 8-h dosing interval, pigs, single i.v. 1000 mg
  %T>MIC: ≤ 81%
[1]; vancomycin low MIC target (1 µg/mL), all the investigated compartments, 8-h dosing interval, pigs, single i.v. 1000 mg
  %T>MIC: ≥ 69%
[1]; vancomycin, range across all targeted tissues and plasma and both MIC targets (1 and 4 µg/mL), pigs, single i.v. 1000 mg
  %T>MIC: 10–100%
